Laboratory results as given in patent US9650334B2 (AbbVie Deutschland GmbH & Co. KG, priority 2013, dated 2017).

Target: T1, human GlyT1c transporter (Homo sapiens, UniProt P48067)
T1 sequence (P48067 1-706): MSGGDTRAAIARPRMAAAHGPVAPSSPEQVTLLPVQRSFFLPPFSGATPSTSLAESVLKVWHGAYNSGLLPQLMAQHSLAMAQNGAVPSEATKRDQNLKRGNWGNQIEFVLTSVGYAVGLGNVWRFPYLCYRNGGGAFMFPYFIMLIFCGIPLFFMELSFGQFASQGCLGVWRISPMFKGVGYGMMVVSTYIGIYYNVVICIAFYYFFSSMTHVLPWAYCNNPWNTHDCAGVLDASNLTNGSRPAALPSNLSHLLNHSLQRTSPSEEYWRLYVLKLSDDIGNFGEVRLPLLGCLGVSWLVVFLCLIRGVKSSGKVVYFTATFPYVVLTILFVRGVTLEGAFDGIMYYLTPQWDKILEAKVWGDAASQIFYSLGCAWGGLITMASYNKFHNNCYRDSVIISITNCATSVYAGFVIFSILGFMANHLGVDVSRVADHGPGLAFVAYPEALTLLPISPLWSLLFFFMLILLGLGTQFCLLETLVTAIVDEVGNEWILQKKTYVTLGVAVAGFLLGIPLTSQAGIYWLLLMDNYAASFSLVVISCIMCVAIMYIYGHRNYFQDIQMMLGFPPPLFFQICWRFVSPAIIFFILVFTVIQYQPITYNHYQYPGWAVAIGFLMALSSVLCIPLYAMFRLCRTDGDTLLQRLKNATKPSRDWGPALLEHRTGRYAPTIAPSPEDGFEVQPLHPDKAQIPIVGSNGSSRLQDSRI
Assay: Radioligand binding assays using recombinant CHO cell membranes expressing human GlyT1
Conditions: Ki, radioligand binding to human GlyT1c transporter-expressing CHO cell membranes

Row | Ki [µM] | SMILES
1 | ≤ 10 | Cn1cnc(S(=O)(=O)N2CC3CCCN(C(=O)c4cccc(C(F)(F)F)c4Cl)C3C2)c1 (stereo not shown) [Example 874, [2-chloro-3-(trifluoromethyl)phenyl]{6-[(1-methyl-1H-imidazol-4-yl)sulfonyl]octahydro-1H-pyrrolo[3,4-b]pyridin-1-yl}methanone]
2 | ≤ 10 | Cc1cccc(C(N[C@H]2CN(S(=O)(=O)c3cn(C)cn3)C[C@@H]2c2ccc(F)cc2)C(F)(F)F)c1 (stereo partly drawn) [Example 875, (3R,4S)-4-(4-fluorophenyl)-1-[(1-methyl-1H-imidazol-4-yl)sulfonyl]-N-[2,2,2-trifluoro-1-(3-methylphenyl)ethyl]pyrrolidin-3-amine]
3 | ≤ 1 | Cc1ccc(C(N[C@H]2CN(S(=O)(=O)c3cn(C)cn3)C[C@@H]2c2ccc(F)cc2)C(F)(F)F)cc1 (stereo partly drawn) [Example 876, (3R,4S)-4-(4-fluorophenyl)-1-[(1-methyl-1H-imidazol-4-yl)sulfonyl]-N-[2,2,2-trifluoro-1-(4-methylphenyl)ethyl]pyrrolidin-3-amine]
4 | ≤ 1 | Cn1cnc(S(=O)(=O)N2CC3CCCN(Cc4ccc(C(F)(F)F)cc4Cl)C3C2)c1 (stereo not shown) [Example 879, 1-[2-chloro-4-(trifluoromethyl)benzyl]-6-[(1-methyl-1H-imidazol-4-yl)sulfonyl]octahydro-1H-pyrrolo[3,4-b]pyridine]
5 | ≤ 1 | Cn1cnc(S(=O)(=O)N2CC3CCCN(C(=O)c4ccc(C(F)(F)F)cc4Cl)C3C2)c1 (stereo not shown) [Example 880, [2-chloro-4-(trifluoromethyl)phenyl]{6-[(1-methyl-1H-imidazol-4-yl)sulfonyl]octahydro-1H-pyrrolo[3,4-b]pyridin-1-yl}methanone]
6 | ≤ 1 | Cn1cnc(S(=O)(=O)N2CC(C(=O)NCc3ccc(F)c(Cl)c3)C3(CCCCC3)C2)c1 (stereo not shown) [Example 881, N-(3-chloro-4-fluorobenzyl)-2-[(1-methyl-1H-imidazol-4-yl)sulfonyl]-2-azaspiro[4.5]decane-4-carboxamide]
7 | ≤ 1 | Cn1cnc(S(=O)(=O)N2CC(C(=O)NCc3ccc(F)c(F)c3)C3(CCCCC3)C2)c1 (stereo not shown) [Example 882, N-(3,4-difluorobenzyl)-2-[(1-methyl-1H-imidazol-4-yl)sulfonyl]-2-azaspiro[4.5]decane-4-carboxamide]
8 | ≤ 10 | Cn1cnc(S(=O)(=O)N2C[C@H](c3ccc(F)cc3)[C@@H](N3C(=O)Cc4ccccc43)C2)c1 [Example 883, 1-{(3R,4S)-4-(4-fluorophenyl)-1-[(1-methyl-1H-imidazol-4-yl)sulfonyl]pyrrolidin-3-yl}-1,3-dihydro-2H-indol-2-one]
9 | ≤ 0.1 | Cn1cnc(S(=O)(=O)N2CC3CCCCC3(NCc3ccc(C(F)(F)F)cc3)C2)c1 (stereo not shown) [Example 884, 2-[(1-methyl-1H-imidazol-4-yl)sulfonyl]-N-[4-(trifluoromethyl)benzyl]octahydro-3aH-isoindol-3a-amine]
10 | ≤ 1 | Cn1cnc(S(=O)(=O)N2CC(COc3ccc(F)cc3)C(c3ccccn3)C2)c1 (stereo not shown) [Example 886, 2-{4-[(4-fluorophenoxy)methyl]-1-[(1-methyl-1H-imidazol-4-yl)sulfonyl]pyrrolidin-3-yl}pyridine]
11 | ≤ 0.1 | Cn1cnc(S(=O)(=O)N2CC(Nc3cccc(OC(F)(F)F)c3)c3ccccc32)c1 (stereo not shown) [Example 887, 1-[(1-methyl-1H-imidazol-4-yl)sulfonyl]-N-[3-(trifluoromethoxy)phenyl]-2,3-dihydro-1H-indol-3-amine]
12 | ≤ 1 | Cn1cnc(S(=O)(=O)N2CC3c4ccccc4CCC3(Oc3cc(C(F)(F)F)ncn3)C2)c1 (stereo not shown) [Example 888, 2-[(1-methyl-1H-imidazol-4-yl)sulfonyl]-3a-{[6-(trifluoromethyl)pyrimidin-4-yl]oxy}-2,3,3a,4,5,9b-hexahydro-1H-benzo[e]isoindole]
13 | ≤ 0.1 | Cn1cnc(S(=O)(=O)N2CC3c4ccccc4CCC3(NCc3ccc(F)cc3)C2)c1 (stereo not shown) [Example 889, N-(4-fluorobenzyl)-2-[(1-methyl-1H-imidazol-4-yl)sulfonyl]-1,2,3,4,5,9b-hexahydro-3aH-benzo[e]isoindol-3a-amine]
14 | ≤ 0.1 | Cn1cc(S(=O)(=O)N2CC3c4ccccc4CC3(Nc3cc(C(F)(F)F)ncn3)C2)nn1 (stereo not shown) [Example 891, 2-[(1-methyl-1H-1,2,3-triazol-4-yl)sulfonyl]-N-[6-(trifluoromethyl)pyrimidin-4-yl]-2,3,3a,8-tetrahydroindeno[1,2-c]pyrrol-8a(1H)-amine]
15 | ≤ 0.1 | CN1CCCCC1C1CN(S(=O)(=O)c2cn(C)cn2)CC1NC1CCc2ccccc21 (stereo not shown) [Example 893, N-(2,3-dihydro-1H-inden-1-yl)-1-[(1-methyl-1H-imidazol-4-yl)sulfonyl]-4-(1-methylpiperidin-2-yl)pyrrolidin-3-amine]
16 | ≤ 0.01 | CN1CCCCC1C1CN(S(=O)(=O)c2cn(C)cn2)CC1Nc1cccc(OCC(F)(F)F)c1 (stereo not shown) [Example 894, 1-[(1-methyl-1H-imidazol-4-yl)sulfonyl]-4-(1-methylpiperidin-2-yl)-N-[3-(2,2,2-trifluoroethoxy)phenyl]pyrrolidin-3-amine]
17 | ≤ 0.01 | Cn1cnc(S(=O)(=O)N2CC(Nc3cccc(OC(F)(F)F)c3)C(c3ccc(F)cn3)C2)c1 (stereo not shown) [Example 895, 4-(5-fluoropyridin-2-yl)-1-[(1-methyl-1H-imidazol-4-yl)sulfonyl]-N-[3-(trifluoromethoxy)phenyl]pyrrolidin-3-amine]
18 | ≤ 0.01 | Cn1cc(S(=O)(=O)N2C[C@H](Nc3cccc(OC(F)(F)F)c3)[C@@H](C3OCCCO3)C2)nn1 [Example 896, (3R,4S)-4-(1,3-dioxan-2-yl)-1-[(1-methyl-1H-1,2,3-triazol-4-yl)sulfonyl]-N-[3-(trifluoromethoxy)phenyl]pyrrolidin-3-amine]
19 | ≤ 0.01 | CN1CCCCC1C1CN(S(=O)(=O)c2cn(C)cn2)CC1Nc1cccc(OC(F)(F)F)c1 (stereo not shown) [Example 898, 1-[(1-methyl-1H-imidazol-4-yl)sulfonyl]-4-(1-methylpiperidin-2-yl)-N-[3-(trifluoromethoxy)phenyl]pyrrolidin-3-amine]
20 | ≤ 0.1 | Cn1cnc(S(=O)(=O)N2C[C@H](Nc3cccc(OCC(F)(F)F)c3)[C@@H](C3OCCCO3)C2)c1 [Example 899, (3R,4S)-4-(1,3-dioxan-2-yl)-1-[(1-methyl-1H-imidazol-4-yl)sulfonyl]-N-[3-(2,2,2-trifluoroethoxy)phenyl]pyrrolidin-3-amine]
21 | ≤ 1 | Cn1cnc(S(=O)(=O)N2C[C@H](Nc3cccc(OC(F)(F)F)c3)[C@@H](C3OCC(C)(C)CO3)C2)c1 [Example 900, (3R,4S)-4-(5,5-dimethyl-1,3-dioxan-2-yl)-1-[(1-methyl-1H-imidazol-4-yl)sulfonyl]-N-[3-(trifluoromethoxy)phenyl]pyrrolidin-3-amine]
22 | ≤ 1 | Cn1cnc(S(=O)(=O)N2C[C@H](Nc3cccc(OC(F)(F)F)c3)[C@@H](C3OCCO3)C2)c1 [Example 902, (3R,4S)-4-(1,3-dioxolan-2-yl)-1-[(1-methyl-1H-imidazol-4-yl)sulfonyl]-N-[3-(trifluoromethoxy)phenyl]pyrrolidin-3-amine]
23 | ≤ 0.01 | Cn1cnc(S(=O)(=O)N2C[C@H](NC3CCc4ccccc43)[C@@H](C3OCCCO3)C2)c1 (stereo partly drawn) [Example 903, (3R,4S)-N-(2,3-dihydro-1H-inden-1-yl)-4-(1,3-dioxan-2-yl)-1-[(1-methyl-1H-imidazol-4-yl)sulfonyl]pyrrolidin-3-amine]
24 | ≤ 0.01 | Cn1cnc(S(=O)(=O)N2C[C@H](NCc3ccc(C(F)(F)F)cc3Cl)[C@@H](C3OCCCO3)C2)c1 [Example 904, (3R,4S)-N-[2-chloro-4-(trifluoromethyl)benzyl]-4-(1,3-dioxan-2-yl)-1-[(1-methyl-1H-imidazol-4-yl)sulfonyl]pyrrolidin-3-amine]
25 | ≤ 1 | Cn1cnc(S(=O)(=O)N2C[C@H](NCc3cccc(OC(F)(F)F)c3)[C@@H](C3OCCCO3)C2)c1 [Example 905, (3R,4S)-4-(1,3-dioxan-2-yl)-1-[(1-methyl-1H-imidazol-4-yl)sulfonyl]-N-[3-(trifluoromethoxy)benzyl]pyrrolidin-3-amine]
26 | ≤ 1 | Cn1cnc(S(=O)(=O)N2C[C@H](NCc3ccc(F)cc3)[C@@H](C3OCCCO3)C2)c1 [Example 906, (3R,4S)-4-(1,3-dioxan-2-yl)-N-(4-fluorobenzyl)-1-[(1-methyl-1H-imidazol-4-yl)sulfonyl]pyrrolidin-3-amine]

Row | SMILES | Ki [µM]
27 | Cn1cnc(S(=O)(=O)N2[C@@H]3CC[C@H]2[C@H](c2ccc(F)cc2)[C@H]3Nc2ccc(F)c(C(F)(F)F)c2)c1 [Example 877, (1R,2R,3R,4S)-3-(4-fluorophenyl)-N-[4-fluoro-3-(trifluoromethyl)phenyl]-7-[(1-methyl-1H-imidazol-4-yl)sulfonyl]-7-azabicyclo[2.2.1]heptan-2-amine] | ≤ 10
28 | Cn1cnc(S(=O)(=O)N2C3CCC2C(c2ccc(F)cc2)C3Nc2ccc(F)c(C(F)(F)F)c2)c1 (stereo not shown) [Example 878, 3-(4-fluorophenyl)-N-[4-fluoro-3-(trifluoromethyl)phenyl]-7-[(1-methyl-1H-imidazol-4-yl)sulfonyl]-7-azabicyclo[2.2.1]heptan-2-amine] | ≤ 10
